Laboratory results published in US20240360289A1, “EPOXY RESIN FOAM, CARBON DIOXIDE ABSORBENT, METHOD FOR PRODUCING EPOXY RESIN FOAM, MULTILAYER STRUCTURE AND METHOD FOR PRODUCING SAME” (MITSUBISHI GAS CHEMICAL COMPANY, INC., priority 2021, published 2024).

Assay: Maximum carbon dioxide release temperature of amine compound (DSC after CO2 absorption)
Assay type: physicochemical
Settings: amine compound after 24 hours in air at 23° C. and 50% RH; DSC 23 to 250° C., 10° C./minute, nitrogen
Method: (Maximum Carbon Dioxide (CO2) Release Temperature of Amine Compound)
A carbon dioxide detector and a Petri dish were placed in an openable desiccator (inner dimension: 370 mm×260 mm×272 mm). Subsequently the amine compound (5 mmol) was added to the Petri dish in the desiccator and the door was immediately closed to leave the amine compound to stand in the desiccator in an air environment at 23° C. and 50% RH for 24 hours. The initial concentration of carbon dioxide was adjusted to about 400 ppm.
Then the amine compound was removed from the desiccator to give an amine compound with carbon dioxide absorbed. The maximum carbon dioxide release temperature of the amine compound with carbon dioxide absorbed was measured by subjecting the amine compound to DSC as described below. First, differential scanning calorimetry of the amine compound was performed under conditions of a temperature range of 23 to 250° C., a heating rate of 10° C./minute and a nitrogen atmosphere using a differential thermogravimeter (product name DTG-60 made by Shimadzu Corporation). The temperature at which the amount of heat absorbed due to the desorption of carbon dioxide was the maximum was calculated from the DSC curve obtained, and the temperature was determined as the maximum carbon dioxide release temperature of the amine compound.

| Structure (SMILES) | Maximum carbon dioxide release temperature [°C] |
| --- | --- |
| NCC1CCCC(CN)C1 (centres unmarked) [1,3-BAC, 1,3-bis(aminomethyl)cyclohexane] | 125.7 |
| NCCN1CCNCC1 [AEP, N-(2-aminoethyl) piperazine] | 81.9 |
| CC1(C)CC(N)CC(C)(CN)C1 (centres unmarked) [IPDA, isophoronediamine] | 114.4 |
| NCc1cccc(CN)c1 [MXDA, metaxylylenediamine] | 135.5 |
| NC1CCC(CC2CCC(N)CC2)CC1 (centres unmarked) [PACM, 4,4′-methylenebis(cyclohexylamine), reference compound] | 53 |
